# Measurements: US9840532B2, “5′-substituted nucleoside compounds” (Eli Lilly and Company, priority 2015, dated 2017)
# System: PRMT5-dependent alternative splicing of MDM4 in A375 melanoma cells
# Test: MDM4 Exon5/6 qPCR Assay in A375 Tumor Cells
# Type: cell-based
# Conditions: Homo sapiens, A-375, 72 hr, Mean ± SEM
# Experimental: Culture A375 tumor cells (ATCC), a melanoma cancer cell line, to 70%-90% confluence in T150 flasks with the growth medium (DMEM; HYCLONE™ #SH30022 with 10% FBS; GIBCO® 10082-147 or equivalent). Treat the cells with standard trypsin/EDTA treatment for 3 min and aspirate and wash with PBS to release the adherent cells from the culture flask. Seed the cells into a 96 well plate (Costar 3596) at 5000/well in growth medium (90 μL). Incubate the plate overnight at 37° C. and 5% CO2 and treat the cells with test compound at serial dilutions ([…], final DMSO addition of 0.2% yield) for 72 hr. Measure activity relative to maximum (2.0 μM of Example 2 and minimum (0.2% DMSO) controls.
# On Day 5 after incubation, remove the medium from the culture plates and wash the cells twice with cold PBS (150 μL/well). Prepare Lysis Working Reagent from the TAQMAN® Gene Expression Cells-to-CT Kit (INVITROGEN™ cat. # AM1729) by dilution of DNAse 1 into Lysis Solution at 1/100. Add Lysis Working Reagent (50 μL/well) to the cell plates, mix well, and incubate at room temperature for 5 min Add kit stop solution (5 μL) to each well, mix the wells, and incubate for 2 min at room temperature. Prepare Reverse Transcriptase Master Mix in the following volume ratios; RT buffer: Nuclease-free water: RT Enzyme at 62.5:31.25:6.25. Add RT mix (48 μL/well) to each well of a 96-well NUNC™ plate (THERMO SCIENTIFIC™ #260860). Add RT mix (20 μL) and each cell lysate sample (5 μL) into a 384 PCR plate (Clear Optical Reaction Plate, cat. #4309849, APPLIED BIOSYSTEMS®) quadrant 1 and add a second addition of RT Mix and cell lysate to quadrant 3. For the RT reaction, seal the plates and then place them in a thermal cycler set at 37° C. for 60 min; 95° C. for 5 min; stop at 4° C. For qPCR, prepare MDM4 exon 5 primers (Life Technologies Hs00967240-ml) and exon 6 primers (Life Technologies Hs00967242-ml) separately in the following volume ratios of RT mix: H2O: exon probe at 10:6:1. Add Exon 5 (17 μL) to odd columns of a 384 PCR plate and add exon 6 (17 μL) to the even columns. Add cDNA (3 μL, from the RT plate) by quadrant stamping to each well of the qPCR plate containing the 17 μL exon primer solution. In this manner, perform qPCR for both exons on cDNAs from a single RT reaction on an individual cell lysate. Seal the plates, spin, and place on a real-time PCR instrument (Life Technologies ViiA7 Real-Time PCR). […]
# Retrieve CT data from the real-time PCR reader and perform the following calculations, where “CPD” is the value from compound-treated samples, and “DMSO” is the minimum control sample, using an Excel template: (Exon 6 CT CPD−Exon 6 CT DMSO)−(Exon 5 CT CPD−Exon 5 CT DMSO)=ΔCT 2^(−ΔCT)=Fold Change […]
row,SMILES,EC50
1,"Nc1ncnc2c1ccn2[C@@H]1O[C@H]([C@H](O)c2ccc(Cl)cc2)[C@@H](O)[C@H]1O [Example 1, (2R,3R,4S,5R)-2-(4-Aminopyrrolo[2,3-d]pyrimidin-7-yl)-5-[(R)-(4-chlorophenyl)-hydroxy-methyl]tetrahydrofuran-3,4-diol]",0.0168 µM
2,"Nc1ncnc2c1ccn2[C@@H]1O[C@H]([C@H](O)c2ccccc2)[C@@H](O)[C@H]1O [Example 2, (2R,3R,4S,5R)-2-(4-Aminopyrrolo[2,3-d]pyrimidin-7-yl)-5[(R)-hydroxy(phenyl)methyl]tetrahydrofuran-3,4-diol]",0.0367 µM
3,"C[C@@](O)(c1ccc(Cl)cc1)[C@H]1O[C@@H](n2ccc3c(N)ncnc32)[C@H](O)[C@@H]1O [Example 3, (2R,3R,4S,5S)-2-(4-Aminopyrrolo[2,3-d]pyrimidin-7-yl)-5-[(1R)-1-(4-chlorophenyl)-1-hydroxy-ethyl]tetrahydrofuran-3,4-diol]",0.0424 µM
